Data reported in the SangsterLogP compilation.

Assay: method code SF, from Suwinski, J.; Salwinska, E.; Watras, J.; Widel, M. (1985). Nitroimidazoles. VI. Partition coefficients and tautomerism of simple nitroimidazoles. 42(4)352-358.

Compared with `COc1[nH]c(C)nc1[N+](=O)[O-]`, `Cc1nc([N+](=O)[O-])c(Cl)[nH]1` is higher in logP: 0.21 for the first, 1.06 for the second.

`Cc1nc([N+](=O)[O-])c(Br)n1C` and `Cc1nc([N+](=O)[O-])c(Cl)n1C` are within 0.2 log units of each other in logP: 0.44 for the first, 0.34 for the second.

First: Cn1cnc([N+](=O)[O-])c1Br
Second: Cn1cnc([N+](=O)[O-])c1N
The logP of the first is higher: 0.36 for the first, -1 for the second.

First: Cn1cncc1[N+](=O)[O-]
Second: Cn1c([N+](=O)[O-])cnc1Cl
The logP of the first is lower: 0.13 for the first, 0.62 for the second.

`Cc1nc(Br)c([N+](=O)[O-])n1C` and `Cc1nc(Cl)c([N+](=O)[O-])n1C` are the same in logP: 0.87 for the first, 0.87 for the second.

Compared with `O=[N+]([O-])c1ncc[nH]1`, `Cn1ccnc1[N+](=O)[O-]` is lower in logP: 0.11 for the first, -0.17 for the second.

Compared with `Cn1cc([N+](=O)[O-])nc1Cl`, `Cc1nc([N+](=O)[O-])cn1C` is lower in logP: 0.19 for the first, -0.24 for the second.

Going from `Cn1cnc([N+](=O)[O-])c1` to `Cn1cc([N+](=O)[O-])nc1Br`, the logP rises from -0.44 to 0.33.

`COc1[nH]cnc1[N+](=O)[O-]` and `Cc1[nH]cnc1[N+](=O)[O-]` are within 0.2 log units of each other in logP: 0.13 for the first, 0.23 for the second.

Compared with `Cc1[nH]c(Br)nc1[N+](=O)[O-]`, `Cc1nc([N+](=O)[O-])c(Br)[nH]1` is higher in logP: 0.86 for the first, 1.14 for the second.

Going from `Cc1nc(Br)n(C)c1[N+](=O)[O-]` to `Cc1c([N+](=O)[O-])nc(Br)n1C`, the logP falls from 0.82 to 0.39.

First: Cc1nc([N+](=O)[O-])c(N)n1C
Second: COc1c([N+](=O)[O-])nc(C)n1C
The logP of the first is lower: -1.1 for the first, -0.09 for the second.

`Cn1cnc(Cl)c1[N+](=O)[O-]` and `Cn1cnc(Br)c1[N+](=O)[O-]` are within 0.2 log units of each other in logP: 0.69 for the first, 0.77 for the second.

Going from `COc1c([N+](=O)[O-])ncn1C` to `Cc1c([N+](=O)[O-])ncn1C`, the logP falls from 0.19 to -0.11.

For `O=[N+]([O-])c1[nH]cnc1Br`, the logP was 0.78.
